The values that follow come from patent EP4541376A1, “ANTIBODY-DRUG CONJUGATES” (priority 2023, dated 2025).

Molecules are shown by their SMILES. Numbered stars: 1 amine (or outer) side, 2 acyl side, 3 side chain; on linkers, the order of the positions; unused ones are H or OH. Square brackets hold non-standard residues; d marks the D form. Peptide text beside a SMILES is read from it. * marks the point of attachment. Exatecan = CC[C@@]1(O)C(=O)OCc2c1cc1n(c2=O)Cc2c-1nc1cc(F)c(C)c3c1c2[C@@H](N*)CC3; Propanoyl(3-maleimido) = O=C1C=CC(=O)N1CCC(=O)*; PABC = O=C(OCc1ccc(N[*:1])cc1)[*:2]

Data set [1] in a line: Reverse-Phase HPLC retention time correlation study (hydrophobicity). The conditions noted are these: RP-HPLC; high Rt associated to hydrophobic constructs, low Rt to hydrophilic ones. In kind it is physicochemical. The method, then: • Column: Phenomenex Gemini NX 5m, C18, 110 Å, 150 × 4.6 mm • Instrument: Shimadzu LC-2030 • Mobile phase: A) water (0.05% TFA), B) acetonitrile (0.05% TFA) • Gradient: 20-70% B over 15 min, flow 1.0 mL/min
A correlation study was also carried out using Reverse-Phase HPLC (RP-HPLC). The two constructs were injected in RP-HPLC and retention times (Rt) correlated with hydrophobicity - i.e., high Rt was associated to hydrophobic constructs whereas low Rt to hydrophilic ones.

Data set [2] in a line: Aggregation study during conjugation to test antibody (% monomer by SEC). The data set is classed as physicochemical. The method, then: Aggregation is a process in which molecules self-associate with each other. In the context of the present invention, aggregation levels are assessed during the conjugation of a linker construct to an antibody. During conjugation, aggregation is quantified in terms of percentage monomer content. High percentage monomer values typically equate to a lower degree of aggregation. Percentage monomer values of 93% or 95% or higher typically mean negligible levels of aggregation or none, whereas values below this threshold typically translate to higher levels of aggregation.
2 mg of test monoclonal antibody at 8.87 mg/ml was pH adjusted with 5% 0.5 M Tris, 0.025 M EDTA, pH 8.5 and reduced with 2.3 mol. eq. TCEP and then conjugated with 6mol. eq. drug linker. […] Percentage monomer values of 95% or greater are assessed as low aggregation.
Aggregation levels were assessed during the conjugation to the test antibody.
During conjugation, we are ideally targeting a monomer content or percentage monomer of 95% or above. Low percentage monomer values usually translate to a higher degree of aggregation. One could therefore agree that percentage monomer values of 95% or higher mean very low levels of aggregation or none, whereas values below this threshold often translate to higher levels of aggregation.

`CC[C@@]1(O)C(=O)OCc2c1cc1n(c2=O)Cc2c-1nc1cc(F)c(C)c3c1c2[C@@H](NC(=O)OCc1ccc(NC(=O)[C@H](C)NC(=O)[C@@H](NC(=O)CNC(=O)CNC(=O)CNC(=O)CNC(=O)CNC(=O)CCN2C(=O)C=CC2=O)C(C)C)cc1)CC3` [Mal-Gly5-VA-PABC-Exatecan] ({Propanoyl(3-maleimido)}-GGGGGVA[PABC]-Exatecan) showed a Rt in data set [1] of 9.76 min. The “Aggregation (% monomer)” value in data set [2] (% monomer by SEC after conjugation to test monoclonal antibody, 95% or greater assessed as low aggregation) came out at 98%. For the same molecule, the Aggregation entry in data set [2] (grade in words, drug linker conjugated to test monoclonal antibody (2.3 mol. eq. TCEP, 6 mol. eq. drug linker)) is given as “None”.
